In ChEMBL document CHEMBL1201862, “PubChem BioAssay data set” (2004):
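Compound exposure: 48 hours, 5 concentrations, 96-well plates. Abbreviation: GI50, concentration required for 50% inhibition of growth.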 The source made the active and inactive calls. Cut-off read from the data, not from the text of the source: active = GI50 up to about 1.1 µM and inactive = higher.

Assays:
Experiment in all cases: NCI anticancer screen, dose series, 48 h
SK-MEL-28 = test system: SK-MEL-28
KM12 = test system: KM12
ACHN = test system: ACHN
K562 = test system: K562
HOP-92 = test system: HOP-92
Malme-3M = test system: Malme-3M
HOP-62 = test system: HOP-62
NCI-H226 = test system: NCI-H226
IGROV-1 = test system: IGROV-1
OVCAR-5 = test system: OVCAR-5
UACC-62 = test system: UACC-62
DU-145 = test system: DU-145
PC-3 = test system: PC-3
786-0 = test system: 786-0
A549 = test system: A549
NCI-H23 = test system: NCI-H23
U-251 = test system: U-251
SK-MEL-5 = test system: SK-MEL-5
RXF 393 = test system: RXF 393
T47D = test system: T47D

Measured: GI50

CCSc1n/c(=C\c2ccco2)c2nncn12
inactive: SK-MEL-28 > 100 µM | KM12 > 100 µM | ACHN > 100 µM | K562 > 100 µM | HOP-92 40.7 µM | Malme-3M > 100 µM | HOP-62 > 100 µM | NCI-H226 > 100 µM | IGROV-1 > 100 µM | OVCAR-5 > 100 µM | UACC-62 > 100 µM | DU-145 > 100 µM | PC-3 > 100 µM | 786-0 > 100 µM | A549 > 100 µM | NCI-H23 > 100 µM | U-251 > 100 µM | SK-MEL-5 > 100 µM

C(=N/c1ccccc1C1SCCCS1)/c1ccccc1
inactive: SK-MEL-28 > 100 µM | KM12 > 100 µM | ACHN > 100 µM | K562 > 100 µM | HOP-92 > 100 µM | Malme-3M > 100 µM | HOP-62 > 100 µM | NCI-H226 > 100 µM | RXF 393 > 100 µM | IGROV-1 > 100 µM | OVCAR-5 > 100 µM | UACC-62 > 100 µM | DU-145 > 100 µM | PC-3 > 100 µM | 786-0 > 100 µM | A549 > 100 µM | NCI-H23 > 100 µM | U-251 > 100 µM | SK-MEL-5 > 100 µM

O=C1[C@@H]2C(c3ccccc3[N+](=O)[O-])=NO[C@@H]2C(=O)N1c1ccc(Cc2ccc(N3C(=O)[C@H]4C(c5ccccc5[N+](=O)[O-])=NO[C@H]4C3=O)cc2)cc1
inactive: SK-MEL-28 > 100 µM | KM12 > 100 µM | ACHN > 100 µM | K562 > 100 µM | HOP-92 > 100 µM | Malme-3M > 100 µM | HOP-62 > 100 µM | RXF 393 > 100 µM | IGROV-1 > 100 µM | OVCAR-5 > 100 µM | UACC-62 > 100 µM | 786-0 > 100 µM | NCI-H23 > 100 µM | U-251 > 100 µM | SK-MEL-5 > 100 µM

O=C1OC(c2cccc(C(F)(F)F)c2)c2ccc3ccccc3c21 (stereo unspecified)
inactive: SK-MEL-28 > 10 µM | KM12 > 10 µM | ACHN > 10 µM | K562 4.76 µM | HOP-92 91.8 µM | Malme-3M > 10 µM | HOP-62 > 10 µM | NCI-H226 > 10 µM | RXF 393 13.5 µM | IGROV-1 > 10 µM | OVCAR-5 > 10 µM | UACC-62 7.41 µM | 786-0 > 10 µM | A549 36.8 µM | NCI-H23 4.95 µM | U-251 7.59 µM | SK-MEL-5 4.74 µM

O=C(Nc1cc(Cl)c(Cl)cc1Cl)C(=O)C1C=CCS1(=O)=O (stereo unspecified)
inactive: SK-MEL-28 > 100 µM | KM12 > 100 µM | ACHN > 100 µM | K562 > 100 µM | HOP-92 26.8 µM | Malme-3M > 100 µM | HOP-62 > 100 µM | NCI-H226 87.3 µM | RXF 393 > 100 µM | IGROV-1 > 100 µM | OVCAR-5 > 100 µM | UACC-62 > 100 µM | 786-0 > 100 µM | A549 > 100 µM | NCI-H23 > 100 µM | U-251 > 100 µM | SK-MEL-5 > 100 µM

CCC(C)(O)c1cn(-c2cccc(S(=O)(=O)O)c2)nn1 (stereo unspecified)
inactive: SK-MEL-28 > 100 µM | KM12 > 100 µM | ACHN > 100 µM | K562 > 100 µM | HOP-92 > 100 µM | Malme-3M > 100 µM | HOP-62 > 100 µM | NCI-H226 > 100 µM | RXF 393 > 100 µM | IGROV-1 > 100 µM | OVCAR-5 > 100 µM | UACC-62 > 100 µM | 786-0 > 100 µM | A549 > 100 µM | NCI-H23 > 100 µM | U-251 > 100 µM | SK-MEL-5 > 100 µM

Cc1ccc(C(=O)O)cc1S(=O)(=O)Nn1cnc2ccc(S(=O)(=O)Nc3ccccc3C(=O)O)cc2c1=O
inactive: SK-MEL-28 > 100 µM | KM12 10.9 µM | ACHN > 100 µM | K562 1.78 µM | HOP-92 > 100 µM | Malme-3M > 100 µM | HOP-62 > 100 µM | NCI-H226 83.8 µM | IGROV-1 60.7 µM | OVCAR-5 54.6 µM | UACC-62 8.93 µM | DU-145 > 100 µM | PC-3 16.6 µM | 786-0 > 100 µM | A549 > 100 µM | NCI-H23 > 100 µM | U-251 > 100 µM

Cc1cc(C)nc(NS(=O)(=O)c2ccc(NC(=O)c3c4ccccc4nc4ccccc34)cc2)n1
inactive: SK-MEL-28 > 100 µM | KM12 47 µM | ACHN 84.7 µM | K562 > 100 µM | HOP-92 > 100 µM | Malme-3M 17.4 µM | HOP-62 61.7 µM | NCI-H226 35.9 µM | IGROV-1 31.2 µM | OVCAR-5 > 100 µM | UACC-62 > 100 µM | DU-145 93.1 µM | PC-3 > 100 µM | 786-0 49 µM | A549 > 100 µM | NCI-H23 44.2 µM | U-251 69.3 µM | SK-MEL-5 38.1 µM

COc1ccc(-c2nc(N)nc(-c3cc(C)ccc3O)c2Cl)cc1
inactive: SK-MEL-28 47.6 µM | KM12 65.5 µM | ACHN 47.2 µM | K562 > 100 µM | HOP-92 55.1 µM | Malme-3M 31.8 µM | HOP-62 41.7 µM | NCI-H226 > 100 µM | RXF 393 37.2 µM | IGROV-1 > 100 µM | OVCAR-5 > 100 µM | UACC-62 29 µM | 786-0 45.4 µM | A549 64.1 µM | NCI-H23 50.6 µM | U-251 39.6 µM

CCO/C=C1\N=C(c2ccccc2Br)OC1=O
inactive: SK-MEL-28 > 100 µM | KM12 > 10 µM | ACHN > 100 µM | K562 > 100 µM | HOP-92 > 100 µM | Malme-3M > 100 µM | HOP-62 > 100 µM | NCI-H226 > 100 µM | RXF 393 > 100 µM | OVCAR-5 > 100 µM | UACC-62 > 100 µM | 786-0 > 100 µM | A549 > 100 µM | NCI-H23 > 100 µM

CC(C)(CN1CCCCC1)C(=O)CC(SCCS(=O)(=O)O)c1ccc(Cl)cc1 (stereo unspecified)
inactive: KM12 4.31 µM | ACHN 5.11 µM | K562 3.09 µM | HOP-92 2.26 µM | Malme-3M 5.38 µM | HOP-62 11.5 µM | NCI-H226 12 µM | RXF 393 3.1 µM | IGROV-1 6.15 µM | OVCAR-5 1.86 µM | UACC-62 4.21 µM | DU-145 9.75 µM | PC-3 4.44 µM | 786-0 3.31 µM | A549 6.56 µM | NCI-H23 3.88 µM | U-251 10.5 µM | SK-MEL-5 7.41 µM

COc1cccc(C2c3cc4c(cc3OC(N3CCCC3)C2C)OCO4)c1OC (stereo unspecified)
inactive: KM12 3.08 µM | ACHN 2.49 µM | K562 3.17 µM | HOP-62 8.17 µM | IGROV-1 2.78 µM | OVCAR-5 3.67 µM | UACC-62 5.78 µM | DU-145 2.01 µM | PC-3 4.48 µM | 786-0 3.89 µM | A549 3.53 µM | NCI-H23 4.37 µM | SK-MEL-5 2.87 µM | T47D 2.47 µM

COc1ccc(NC(=O)CCc2cc(C(C)(C)C)[nH]n2)cc1
inactive: SK-MEL-28 > 100 µM | KM12 > 100 µM | ACHN > 100 µM | K562 > 100 µM | HOP-92 > 100 µM | Malme-3M > 100 µM | HOP-62 > 100 µM | NCI-H226 > 100 µM | RXF 393 > 100 µM | IGROV-1 > 100 µM | OVCAR-5 > 100 µM | UACC-62 > 100 µM | 786-0 > 100 µM | A549 > 100 µM | NCI-H23 > 100 µM | U-251 > 100 µM | SK-MEL-5 > 100 µM

CCOC(=O)CC1(C(=O)OCC)c2[nH]c3ccccc3c2CCN1Cc1ccccc1 (stereo unspecified)
inactive: SK-MEL-28 20.4 µM | KM12 17.7 µM | ACHN 21.2 µM | K562 16.9 µM | HOP-92 17.5 µM | Malme-3M 17.8 µM | HOP-62 18.1 µM | NCI-H226 19.1 µM | RXF 393 17.7 µM | IGROV-1 18.3 µM | OVCAR-5 20.5 µM | UACC-62 17.1 µM | 786-0 16.9 µM | A549 19.5 µM | NCI-H23 15.9 µM | U-251 15 µM | SK-MEL-5 20 µM

COC(=O)[C@]1(c2cc3ccccc3n2S(=O)(=O)c2ccccc2)CC2CN(C(=O)OCc3ccccc3)C1C1OC(C)(C)OC21 (stereo partly specified)
inactive: SK-MEL-28 1.26 µM | KM12 > 100 µM | ACHN > 100 µM | HOP-92 10.2 µM | Malme-3M 2.09 µM | HOP-62 > 100 µM | NCI-H226 93.1 µM | RXF 393 > 100 µM | IGROV-1 > 100 µM | OVCAR-5 > 100 µM | UACC-62 > 100 µM | DU-145 > 100 µM | PC-3 > 100 µM | 786-0 > 100 µM | A549 23.9 µM | NCI-H23 > 100 µM | U-251 > 100 µM | SK-MEL-5 > 100 µM

COC(=O)C(COC(=O)/C=C/c1ccc(OC(C)=O)c(OC(C)=O)c1)OC(=O)/C=C/c1ccc(OC(C)=O)c(OC(C)=O)c1 (stereo unspecified)
inactive: SK-MEL-28 15.5 µM | KM12 12 µM | ACHN 14.5 µM | K562 3.48 µM | HOP-92 18 µM | Malme-3M 15.5 µM | HOP-62 10.2 µM | NCI-H226 24.5 µM | RXF 393 12.3 µM | IGROV-1 4.94 µM | OVCAR-5 13 µM | UACC-62 16.8 µM | DU-145 12.1 µM | PC-3 11.1 µM | 786-0 11.8 µM | A549 16.7 µM | NCI-H23 12 µM | U-251 4.62 µM | SK-MEL-5 14.8 µM
